Assay [1] concerns Staphylococcus aureus. The experiment in a line: Tested for zone of inhibition against Staphylococcus aureus UC6685 (1 mg/mL, 80 microL/6.5 mm). The class given is functional.
The subject of assay [2] is Staphylococcus epidermidis. In words: Tested for zone of inhibition against Staphylococcus epidermidis UC719 (1 mg/mL, 80 microL/6.5 mm). The class given is functional.
For assay [3], the system named is Staphylococcus aureus. In words: Tested for zone of inhibition against Staphylococcus aureus UC3665 (1 mg/mL, 80 microL/12.7 mm). The class given is functional.
Assay [4] concerns Clostridium perfringens. In words: Tested for zone of inhibition against Clostridium perfringens UC6509. The class given is functional.
Assay [5] relates to Bacteroides fragilis. In words: Tested for zone of inhibition against Bacteroides fragilis UC6513 (1 mg/mL, 80 microL/12.7 mm). The class given is functional.
Assay [6] deals with Staphylococcus aureus. The experiment in a line: The compound (1 mg/mL, 80 microL/6.5 mm) was tested for zone of inhibition against Staphylococcus aureus UC6685; Tr = trace. The class given is functional, organism-based.
The test system of assay [7] is Bacteroides thetaiotaomicron. The experiment in a line: Tested in vitro for its antibacterial activity against Bacteroides thetaiotaomicron UC 9014[clindamycin 2 micro g/mL]. The class given is functional.
The test system of assay [8] is Parabacteroides distasonis. The experiment in a line: Tested in vitro for its antibacterial activity against Bacteroides distasonis UC6518. The class given is functional.
A further assay deals with Cutibacterium acnes. In words: Tested in vitro for its antibacterial activity against Propionibacterium acnes UC6564. The class given is functional.
In assay [9] the test system is Prevotella melaninogenica. In words: Tested in vitro for its antibacterial activity against Bacteroides melaninogenicus UC 6523. The class given is functional.
The nature of assay [10]: Tested in vitro for its antibacterial activity against Peptococcus variabilis UC6320. The class given is functional.
Assay [11] has as its system Bacteroides fragilis. In words: Tested in vitro for its antibacterial activity against Bacteroides fragilis UC9370 [clindamycin 1 micro g/mL]. The class given is functional.
A further assay concerns Fusobacterium nucleatum. In words: Tested in vitro for its antibacterial activity against Fusobacterium nucleatum UC6324. The class given is functional.
For assay [12], the system named is Clostridium perfringens. In words: Tested in vitro for its antibacterial activity against Clostridium perfringens UC6509. The class given is functional.
Assay [13] has as its system Clostridium perfringens. In words: The compound (1 mg/mL, 80 microL/12.7 mm) was tested for zone of inhibition against Clostridium perfringens UC6509 (33H -, H: Hazy zone). The class given is functional.
Assay [14] concerns Staphylococcus epidermidis. In words: The compound (1 mg/mL, 80 microL/6.5 mm) was tested for zone of inhibition against Staphylococcus epidermidis UC719 (14H -, H: Hazy zone). The class given is functional.
The test system of assay [15] is Staphylococcus epidermidis. In words: The compound (1 mg/mL, 80 microL/6.5 mm) was tested for zone of inhibition against Staphylococcus epidermidis UC719; Tr = trace. The class given is functional, organism-based.
The test system of a further assay is Escherichia coli. The experiment in a line: Tested in vitro for its antibacterial activity against Escherichia coli UC9379. The class given is functional.
Another assay concerns Streptococcus pyogenes. The experiment in a line: Tsted in vitro for its antibacterial activity against Streptococcus pyogenes UC152. The class given is functional.
Another assay deals with Mycobacterium avium. The experiment in a line: The compound (1 mg/mL, 80 microL/12.7 mm) was tested for zone of inhibition against Mycobacterium avium UC159; Tr = trace. The class given is functional, organism-based.
Assay [16] deals with Clostridium perfringens. The experiment in a line: The compound (1 mg/mL, 80 microL/12.7 mm) was tested for zone of inhibition against Clostridium perfringens UC6509; Tr = trace. The class given is functional, organism-based.

Structures are written as SMILES. In brackets after ≈: the same amount, converted by molar mass.

Regarding `CCCCCC(=O)N1C[C@H]([C@H](C)COC(C)=O)C1=O`, the Diameter of inhibition zone with Staphylococcus aureus [1] turned out to be 9 mm; in assay [2], 23 mm; in the assay with Staphylococcus aureus [3], 36 mm.

For the molecule `CCCCOC(=O)N1C[C@H]([C@H](C)CNC(C)=O)C1=O`, the Diameter of inhibition zone came out at 0 mm in the assay on Staphylococcus aureus [1]; 19 mm in the assay with Clostridium perfringens [4]; 36 mm in the assay with Bacteroides fragilis [5]; 0 mm in assay [2]; 0 mm with Staphylococcus aureus [3].

Regarding `CCCCCC(=O)N1C/C(=C(\C)Cn2nnc(C(=O)OC)c2C(=O)OC)C1=O`, the Diameter of inhibition zone with Clostridium perfringens [4] was 0 mm; with Bacteroides fragilis [5], 17 mm; in [2], 0 mm; in the assay with Staphylococcus aureus [3], 0 mm; with Staphylococcus aureus [6], “Trace”.

As a reminder, the MIC is the least concentration at which growth counts as inhibited. Turning to `CCCC(=O)N1C[C@H]([C@H](C)COC(C)=O)C1=O`, the MIC in [7] was 64 µg/mL (≈ 265 µM); in assay [8], > 128 µg/mL; with Cutibacterium acnes it was 32 µg/mL (≈ 133 µM); in assay [9], 64 µg/mL (≈ 265 µM); in assay [10], 64 µg/mL (≈ 265 µM); against Bacteroides fragilis [11], > 128 µg/mL. The MIC in the assay with Fusobacterium nucleatum was 64 µg/mL (≈ 265 µM); against Clostridium perfringens [12] it was > 128 µg/mL. Also, the Diameter of inhibition zone with Staphylococcus aureus [1] came to 0 mm; with Bacteroides fragilis [5], 78 mm; in assay [2], 0 mm; in the assay on Staphylococcus aureus [3], 0 mm; in the assay on Clostridium perfringens [13], 33 mm.

With `CC(=O)OC[C@H](C)[C@H]1CN(C(C)=O)C1=O`, the Diameter of inhibition zone in the assay on Staphylococcus aureus [1] came out at 0 mm; in the assay on Clostridium perfringens [4], 0 mm; with Bacteroides fragilis [5], 20 mm; in assay [2], 0 mm; in the assay on Staphylococcus aureus [3], 0 mm.

For the molecule `CCCC(=O)N1C[C@H]([C@@H](C)COC(C)=O)C1=O`, the Diameter of inhibition zone was 0 mm with Staphylococcus aureus [1]; 0 mm in the assay with Clostridium perfringens [4]; 36 mm in the assay with Bacteroides fragilis [5]; 0 mm in [2]; 0 mm in the assay with Staphylococcus aureus [3].

`C[C@H]1[C@H](NC(=O)/C(=N\OC(C)(C)C(=O)O)c2csc(N)n2)C(=O)N1S(=O)(=O)O` [AZTREONAM]: the minimal inhibitory concentration (MIC) was 64 µg/mL (≈ 147 µM) in [8], 2 µg/mL (≈ 4.59 µM) against Cutibacterium acnes, 4 µg/mL (≈ 9.19 µM) in assay [9] and 4 µg/mL (≈ 9.19 µM) in the assay with Fusobacterium nucleatum.

Turning to `CCCCOC(=O)N1C/C(=C(\C)CN=[N+]=[N-])C1=O`, the Diameter of inhibition zone amounted to 39 mm with Staphylococcus aureus [1]; 36 mm in the assay with Clostridium perfringens [4]; 37 mm with Bacteroides fragilis [5]; 32 mm in assay [2]; 30 mm with Staphylococcus aureus [3].

Regarding `CCCC(=O)OC[C@H](C)[C@H]1CN(C(=O)CCC)C1=O`, the MIC was determined as 128 µg/mL (≈ 475 µM) in assay [7]; 256 µg/mL (≈ 950 µM) in assay [8]; 64 µg/mL (≈ 238 µM) against Cutibacterium acnes; 64 µg/mL (≈ 238 µM) in assay [9]; 256 µg/mL (≈ 950 µM) in assay [10]; 256 µg/mL (≈ 950 µM) in the assay with Bacteroides fragilis [11]. In addition, the MIC was 256 µg/mL (≈ 950 µM) in the assay with Fusobacterium nucleatum and > 256 µg/mL in the assay on Clostridium perfringens [12]. Moreover, the Diameter of inhibition zone in the assay with Clostridium perfringens [4] was 33 mm; with Bacteroides fragilis [5] it was 41 mm; in the assay with Staphylococcus aureus [3] it was 0 mm; in assay [14] it was 14 mm; with Staphylococcus aureus [6], “Trace”.

As to `CC(=O)OC/C(C)=C1/CN(C(C)=O)C1=O`, the Diameter of inhibition zone in the assay with Staphylococcus aureus [1] turned out to be 0 mm; with Clostridium perfringens [4], 0 mm; in the assay on Bacteroides fragilis [5] it was 29 mm; in assay [2], 0 mm; in the assay with Staphylococcus aureus [3] it was 0 mm.

Consider `CCCCCC(=O)N1C[C@H]([C@H](C)CNC(C)=O)C1=O`, for which the Diameter of inhibition zone with Bacteroides fragilis [5] was 76 mm; in assay [15] it was “Trace”; with Staphylococcus aureus [3], 19 mm; in the assay with Staphylococcus aureus [6] it was “Trace”.

On to `CO[C@@]1(NC(=O)C(C(=O)O)c2ccc(O)cc2)C(=O)N2C(C(=O)O)=C(CSc3nnnn3C)CO[C@@H]21` (some centres undefined) [MOXALACTAM], for which the MIC came to 0.06 µg/mL (≈ 0.115 µM) against Escherichia coli and 0.5 µg/mL (≈ 0.961 µM) against Streptococcus pyogenes.

As to `CCCCCC(=O)N1C/C(=C(/C)CO)C1=O`, the Diameter of inhibition zone was 0 mm with Staphylococcus aureus [1]; 28 mm in the assay on Clostridium perfringens [4]; 27 mm in the assay with Bacteroides fragilis [5]; 0 mm in assay [2]; “Trace” in the assay on Mycobacterium avium; 0 mm in the assay on Staphylococcus aureus [3].

Turning to `CCCC(=O)OC/C(C)=C1/CN(C(=O)CCC)C1=O`, the Diameter of inhibition zone in the assay on Staphylococcus aureus [1] came to 0 mm; in the assay on Clostridium perfringens [4], 0 mm; in the assay with Bacteroides fragilis [5], 21 mm; in [2], 0 mm; with Staphylococcus aureus [3] it was 0 mm.

With `CCCCCC(=O)OC/C(C)=C1/CN(C(=O)CCCCC)C1=O`, the Diameter of inhibition zone (with Staphylococcus aureus [1]; in the assay with Clostridium perfringens [4]; with Bacteroides fragilis [5]; in [2]; in the assay with Staphylococcus aureus [3]) was 0 mm each time.

For the molecule `CCCC(=O)OC/C(C)=C1/CN(C(=O)c2ccccc2)C1=O`, the “Diameter of inhibition zone” value with Clostridium perfringens [16] was “Trace”; in the assay with Staphylococcus aureus [1], 0 mm; with Bacteroides fragilis [5], 0 mm; in assay [2], 0 mm; in the assay on Mycobacterium avium, “Trace”; with Staphylococcus aureus [3] it was 16 mm.

Consider `CCCCCC(=O)N1C/C(=C(\C)CF)C1=O`, for which the Diameter of inhibition zone in the assay on Staphylococcus aureus [1] was 39 mm; in the assay on Clostridium perfringens [4] it was 78 mm; in the assay on Bacteroides fragilis [5] it was 88 mm; in assay [2], 31 mm; in the assay on Staphylococcus aureus [3] it was 36 mm.

In the case of `CCCCCC(=O)N1C/C(=C(\C)CN=[N+]=[N-])C1=O`, the Diameter of inhibition zone worked out at 27 mm with Staphylococcus aureus [1], 52 mm in the assay on Bacteroides fragilis [5], 19 mm in assay [2] and 27 mm in the assay with Staphylococcus aureus [3].

For the molecule `CCCC(=O)N1C/C(=C(\C)COC(C)=O)C1=O`, the Diameter of inhibition zone was 8 mm with Staphylococcus aureus [1]; 0 mm in the assay with Clostridium perfringens [4]; 31 mm in the assay with Bacteroides fragilis [5]; “Trace” in [15]; 18 mm in the assay on Staphylococcus aureus [3].

As for `CCC[C@@H]1C[C@@H](C(=O)N[C@@H]([C@H]2O[C@H](SC)[C@H](O)[C@@H](O)[C@H]2O)[C@H](C)Cl)N(C)C1` [CLINDAMYCIN], the MIC in [7] is 4 µg/mL (≈ 9.41 µM); in assay [8], < 0.12 µg/mL; with Cutibacterium acnes it was < 0.12 µg/mL; in assay [9] it was < 0.12 µg/mL; in [10], 1 µg/mL (≈ 2.35 µM); in the assay on Bacteroides fragilis [11], < 0.12 µg/mL. Also, the MIC against Fusobacterium nucleatum and in the assay with Clostridium perfringens [12] was < 0.12 µg/mL throughout. For the same molecule, the Diameter of inhibition zone is 0 mm in the assay with Staphylococcus aureus [1]; 24 mm in the assay on Clostridium perfringens [4]; 30 mm in the assay on Bacteroides fragilis [5]; 22 mm in assay [2]; “Trace” with Mycobacterium avium; 0 mm in the assay on Staphylococcus aureus [3].

As for `CCCCCC(=O)OC[C@@H](C)[C@H]1CN(C(=O)CCCCC)C1=O`, the MIC in [7] is 8 µg/mL (≈ 24.6 µM); in assay [8], 256 µg/mL (≈ 787 µM); in the assay with Cutibacterium acnes, 4 µg/mL (≈ 12.3 µM); in assay [9], 8 µg/mL (≈ 24.6 µM); in assay [10] it was 256 µg/mL (≈ 787 µM); against Escherichia coli, > 160 µg/mL. Moreover, the MIC against Bacteroides fragilis [11] is 8 µg/mL (≈ 24.6 µM); in the assay with Fusobacterium nucleatum, 16 µg/mL (≈ 49.2 µM); with Streptococcus pyogenes it was > 160 µg/mL; in the assay on Clostridium perfringens [12], 128 µg/mL (≈ 393 µM). In addition, the Diameter of inhibition zone was 24 mm in the assay with Staphylococcus aureus [1], 8 mm in assay [2] and 31 mm in the assay with Staphylococcus aureus [3].

As for `CCCCCC(=O)N1C[C@H]([C@H](C)Cn2nnc(C(=O)OC)c2C(=O)OC)C1=O`, the Diameter of inhibition zone with Staphylococcus aureus [1] stood at 0 mm; with Bacteroides fragilis [5], 65 mm; in assay [2], 0 mm; with Staphylococcus aureus [3] it was 0 mm.

In the case of `CCCC(=O)N1C/C(=C(/C)COC(C)=O)C1=O`, the Diameter of inhibition zone in the assay on Staphylococcus aureus [1] was 0 mm; in the assay with Bacteroides fragilis [5], 31 mm; in [2], 0 mm; with Staphylococcus aureus [3], 0 mm.

With `CCCCCC(=O)N1C/C(=C(/C)COC2CCCCO2)C1=O` (centres undefined), the Diameter of inhibition zone came to 0 mm in the assay with Staphylococcus aureus [1], 0 mm in the assay with Bacteroides fragilis [5], 0 diameter mm in [2] and 0 mm in the assay with Staphylococcus aureus [3].

`CCCCCC(=O)N1C/C(=C(\C)COC(C)=O)C1=O`: the Diameter of inhibition zone is 12 mm in the assay on Staphylococcus aureus [1]; 0 mm with Clostridium perfringens [4]; 30 mm in the assay on Bacteroides fragilis [5]; 7 mm in assay [2]; 19 mm in the assay on Staphylococcus aureus [3].
